# Where “and” joins values, the source holds several entries; their conditions need not be identical. Equal values may be shown once. Read-outs that look alike come from different tables or passages of the source.
# Legend:
# [1] = format: physicochemical; settings: 37°C; for S: solubility: calculated as free form; for FC: crystal transfer: XRPD of solid; for pH: pH of filtrate
# [2] = format: physicochemical; settings: for S: solubility: 1440 min; for FC: crystal transfer: XRPD of solid; for pH: pH of filtrate
# [3] = DVS
# Method: DVS isotherms were collected on an SMS (Surface Measurement Systems) DVS Intrinsic. Relative humidity at 25°C was calibrated using the deliquescence points of LiCl, Mg(NO3)2, and KCl. Table 9 DVS testing parameters
# [4] = for Carr index: (tapped density - bulk density) / tapped density; for Average angle of repose (°) / Average bulk density / Average tapped density: mean of three tests
# Method: A method for testing the density and the tapped density included: (1) a certain mass of to-be-assessed sample was placed into a 5 mL measuring cylinder, and the volume at this moment was recorded. The bulk density was calculated by dividing the mass of the sample by the volume at this moment. (2) The measuring cylinder was slightly tapped 200 times, the final volume was recorded, and the tapped density was calculated by dividing the mass of the sample by the final volume. (3) Three parallel tests were conducted. A method for testing the angle of repose included: (1) a funnel was fixed vertically to a bottom surface, and the material was slowly placed into the funnel. (2) A well-proportioned cone of the material was formed on the bottom surface. The height and bottom surface diameter of the cone were measured. (3) Three parallel tests were conducted.
# Angle of repose α = […], where h is the cone height, and D is the cone diameter.
# [5] = Mechanical stability (grinding, tableting at 350 MPa, XRPD); format: physicochemical
# in vivo = test: in vivo; design: species or system Sprague-Dawely rats; settings: rat, po
# Source text: Sprague-Dawely rats (SPF grade) used in this experiment were purchased from Zhejiang Charles River Experimental Animal Technology Co., Ltd. with the production license No. SCXK (Zhe) 2019-0001 and the animal qualification certificate No. 20220107Aazz0619000738 and 20220107Aazz0619000691. A body weight range of males was 206.6 g to 234.5 g, and a body weight range of females was 188.4 g to 205.9 g.
# In this experiment, all animals were randomly divided into 5 groups (5 animals/sex/group), received the drug at 97 mg/kg, 174 mg/kg, 312 mg/kg, 559 mg/kg, and 1000 mg/kg, respectively, and received signal intragastric administration orally. […] All animals received administration according to their latest weighed body weight. The drug was stirred for at least 10 min before administration, and continuously stirred during administration until the administration of the sample at this concentration was completed. […]
# All animals underwent a comprehensive physical examination by a veterinarian before administration. […] All surviving animals were weighed once on the day of random grouping (Day-1), Day 1 (before administration), Day 3, Day 5, Day 7, and Day 8; and their 24±1-hour food consumption was measured once on Day 1 (Day 1 to Day 2), Day 2 (Day 2 to Day 3), and Day 6 (Day 6 to Day 7). […]
# [6] = Solid-state stability (XRPD, UPLC purity); settings: for Crystal form Transform: XRPD; for Purity (area%): starting purity 99.82 (hydrochloride), 99.72 (free); for Area (%): UPLC main peak (#Peak 1, RRT 1.00)
# [7] = single values of three parallel tests
compound,measurement,setting,value
CC[S@@](=N)(=O)C[C@H]1CC[C@H](N(C)c2ncnc3[nH]ccc23)CC1 [Free crystal form A],S: solubility,"[1]; FaSSIF, 1 h, 60 min",2200 µg/mL
same,S: solubility,"[1]; FaSSIF, 2 h, 120 min",2200 µg/mL
same,S: solubility,"[1]; FaSSIF, 4 h, 240 min",2300 µg/mL
same,S: solubility,"[1]; FaSSIF, 24 h, 1440 min",2400 µg/mL
same,S: solubility,"[1]; H2O, 1 h, 60 min",2100 µg/mL
same,S: solubility,"[1]; H2O, 2 h, 120 min",2100 µg/mL
same,S: solubility,"[1]; H2O, 4 h, 240 min",2200 µg/mL
same,S: solubility,"[1]; H2O, 24 h, 1440 min",2400 µg/mL
same,FC: crystal transfer,"[1]; FaSSIF, 1 h",No
same,FC: crystal transfer,"[1]; FaSSIF, 2 h",No
same,FC: crystal transfer,"[1]; FaSSIF, 4 h",No
same,FC: crystal transfer,"[1]; FaSSIF, 24 h",No
same,FC: crystal transfer,"[1]; FeSSIF, 1 h",No
same,FC: crystal transfer,"[1]; FeSSIF, 2 h",No
same,FC: crystal transfer,"[1]; FeSSIF, 4 h",No
same,FC: crystal transfer,"[1]; FeSSIF, 24 h",No
same,FC: crystal transfer,"[1]; H2O, 1 h",No
same,FC: crystal transfer,"[1]; H2O, 2 h",No
same,FC: crystal transfer,"[1]; H2O, 4 h",No
same,FC: crystal transfer,"[1]; H2O, 24 h",No
same,FC: crystal transfer,"[1]; SGF, 1 h",No
same,FC: crystal transfer,"[1]; SGF, 2 h",No
same,FC: crystal transfer,"[1]; SGF, 4 h",No
same,FC: crystal transfer,"[1]; SGF, 24 h",No
same,pH,"[1]; FaSSIF, 1 h",6.6
same,pH,"[1]; FaSSIF, 2 h",6.6
same,pH,"[1]; FaSSIF, 4 h",6.6
same,pH,"[1]; FaSSIF, 24 h",6.6
same,pH,"[1]; FeSSIF, 1 h",5.3
same,pH,"[1]; FeSSIF, 2 h",5.3
same,pH,"[1]; FeSSIF, 4 h",5.3
same,pH,"[1]; FeSSIF, 24 h",5.3
same,pH,"[1]; H2O, 1 h",6.7
same,pH,"[1]; H2O, 2 h",6.6
same,pH,"[1]; H2O, 4 h",6.7
same,pH,"[1]; H2O, 24 h",7.3
same,pH,"[1]; SGF, 1 h",5.1
same,pH,"[1]; SGF, 2 h",5.2
same,pH,"[1]; SGF, 4 h",5.2
same,pH,"[1]; SGF, 24 h",5.2
same,S: solubility,"[2]; Buffer (pH=4.5), room temperature, 24 h, calculated as free form",>9100 µg/mL
same,FC: crystal transfer,"[2]; Buffer (pH=2.0), 24 h",No
same,FC: crystal transfer,"[2]; Buffer (pH=7.4), 24 h",No
same,S: solubility,"[2]; buffer, pH 2, 1440 min",6200 µg/mL
same,S: solubility,"[2]; buffer, pH 4.5, 1440 min",> 9100 µg/mL
same,pH,"[2]; Buffer (pH=2.0), room temperature, 24 h",5.6
same,pH,"[2]; Buffer (pH=4.5), room temperature, 24 h",5.0
same,pH,"[2]; Buffer (pH=7.4), room temperature, 24 h",7.4
same,Hygroscopic weight gain (wt%) at 25°C/80% RH,[3],0.39 wt%
same,Hygroscopic weight gain (wt%) at 25°C/80% RH,[3]; listed as free crystal form A,0.39 wt%
same,Carr index,[4],51%
same,Carr index,[4]; listed as free crystal form A,51%
same,Average angle of repose (°),[4],47.1 °
same,Average bulk density,[4],0.11 g/mL
same,Average tapped density,[4],0.23 g/mL
same,Average angle of repose (°),[4]; listed as free crystal form A,47.1 °
same,Average bulk density,[4]; listed as free crystal form A,0.11 g/mL
same,Average tapped density,[4]; listed as free crystal form A,0.23 g/mL
same,Angle of repose (°),[4]; [7],49.0 ° and 47.3 ° and 45.0 °
same,Bulk density,[4]; [7],0.11 g/mL
same,Tapped density,"[4]; tapped 200 times, single values of three parallel tests",0.23 g/mL and 0.22 g/mL
same,Results of mechanical stability After grinding,[5]; manual grinding,"The crystal form remains unchanged, but the crystallinity is slightly reduced"
same,Results of mechanical stability After tableting,"[5]; tablet press, 350 MPa","The crystal form remains unchanged, but the crystallinity is slightly reduced"
same,MTD at 168 h,in vivo,174 mg/kg
same,Crystal form Transform,"[6]; 25°C/60% RH/4 weeks, open",No
same,Purity (area%),"[6]; 25°C/60% RH/4 weeks, open",99.71 area%
same,Crystal form Transform,"[6]; 40°C/75% RH/4 weeks, open",No
same,Purity (area%),"[6]; 40°C/75% RH/4 weeks, open",99.72 area%
same,Crystal form Transform,"[6]; 80°C/1 d, closed",No
same,Area (%),[6]; 25°C/60% RH/4 weeks,99.71%
same,Area (%),[6]; 40°C/75% RH/4 weeks,99.72%
same,Area (%),[6]; 80°C/1 d,99.71%
